The text below walks through data of ChEMBL document CHEMBL6092149, “Discovery of 1(2H)-phthalazinone and 1(2H)-isoquinolinone derivatives as potent hematopoietic progenitor kinase 1 (HPK1) inhibitors” (Eur J Med Chem, 2024).

The target of data set [1] is RAF proto-oncogene serine/threonine-protein kinase (Homo sapiens) (UniProt P04049). Nature of the data set: Inhibition of RAF1 (unknown origin) at 1000 nM incubated for 1 hrs by active site-directed competition binding assay relative to control.
Data set [2] concerns the target Mitogen-activated protein kinase 3 (Homo sapiens) (UniProt P27361). Put plainly: Inhibition of ERK1 (unknown origin) at 1000 nM incubated for 1 hrs by active site-directed competition binding assay relative to control.
In data set [3] the target is T1, Mitogen-activated protein kinase kinase kinase kinase 1 (Homo sapiens, UniProt Q92918). Put plainly: Inhibition of HPK1 in human Jurkat cells assessed as reduction in SLP76 phosphorylation pretreated for 1 hr followed by anti-CD3 addition and measured after 15 min by ELISA method. It is filed as cell-based. A general note: ELISA stands for enzyme-linked immunosorbent assay.
Target sequence in this assay (Q92918 whole entry): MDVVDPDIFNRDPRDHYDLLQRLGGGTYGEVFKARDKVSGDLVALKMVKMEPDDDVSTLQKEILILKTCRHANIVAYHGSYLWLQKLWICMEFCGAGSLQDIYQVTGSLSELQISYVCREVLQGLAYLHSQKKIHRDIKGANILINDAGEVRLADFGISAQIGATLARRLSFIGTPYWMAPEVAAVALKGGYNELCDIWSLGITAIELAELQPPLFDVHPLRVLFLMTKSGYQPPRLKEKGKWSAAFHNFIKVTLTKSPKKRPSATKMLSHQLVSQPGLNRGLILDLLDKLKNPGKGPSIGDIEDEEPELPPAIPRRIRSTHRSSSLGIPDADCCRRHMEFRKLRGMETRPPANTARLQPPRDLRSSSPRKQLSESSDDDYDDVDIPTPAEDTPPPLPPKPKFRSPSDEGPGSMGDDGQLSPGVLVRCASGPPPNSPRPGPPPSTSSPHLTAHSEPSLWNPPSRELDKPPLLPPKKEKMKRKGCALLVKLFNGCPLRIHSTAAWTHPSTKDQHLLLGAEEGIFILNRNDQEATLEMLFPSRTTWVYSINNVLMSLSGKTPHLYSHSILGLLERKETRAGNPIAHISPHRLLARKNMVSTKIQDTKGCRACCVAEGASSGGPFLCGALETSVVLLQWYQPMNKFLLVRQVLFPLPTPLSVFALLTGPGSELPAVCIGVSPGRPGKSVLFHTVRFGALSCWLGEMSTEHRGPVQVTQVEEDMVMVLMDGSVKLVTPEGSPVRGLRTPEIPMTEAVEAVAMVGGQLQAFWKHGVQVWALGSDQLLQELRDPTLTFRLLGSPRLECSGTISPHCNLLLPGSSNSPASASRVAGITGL

The target of data set [4] is Mitogen-activated protein kinase kinase kinase kinase 3 (Homo sapiens, UniProt Q8IVH8). Nature of the data set: Inhibition of GST-tagged recombinant human MAP4K3 (1 to 380 residues) extracted from Baculovirus infected Sf9 insect cells preincubated for 10 min followed by fluorescein PKC and ATP addition and measured after 90 min by Envision2104 Multilabel Reader analysis.

Data set [5] in a line: AUC (0 to 24 hrs) in overnight fasted mouse at 10 mg/kg, po. It is filed as ADME, organism-based. The conditions noted are these: in vivo.
Data set [6] addresses T1, Mitogen-activated protein kinase kinase kinase kinase 1. Put plainly: Inhibition of human HPK1 at 1000 nM incubated for 1 hrs by active site-directed competition binding assay relative to control; values are per cent of control.
Target sequence in this assay (Q92918 whole entry, looked up): as the sequence (Q92918 whole entry) above
Data set [7] can be described thus: AUC (0 to 24 hrs) in overnight fasted rat at 10 mg/kg, po. It is filed as ADME, organism-based. The conditions noted are these: in vivo.
Data set [8] has as its target RAC-gamma serine/threonine-protein kinase (Homo sapiens) (UniProt Q9Y243). Put plainly: Inhibition of AKT3 (unknown origin) at 1000 nM incubated for 1 hrs by active site-directed competition binding assay relative to control; values are per cent of control.
For data set [9], the target named is T1, Mitogen-activated protein kinase kinase kinase kinase 1. Nature of the data set: Inhibition of N-terminal DYKDDDDK recombinant human HPK1 (1 to 346 residues) expressed in Sf21 insect cells preincubated for 10 min followed by fluorescein PKC and ATP addition and measured after 90 min by Envision2104 Multilabel Reader analysis.
Target sequence in this assay (Q92918 whole entry): as above
Data set [10] deals with RAC-beta serine/threonine-protein kinase (Homo sapiens) (UniProt P31751). Put plainly: Inhibition of AKT2 (unknown origin) at 1000 nM incubated for 1 hrs by active site-directed competition binding assay relative to control; values are per cent of control.
Data set [11] addresses Tyrosine-protein kinase ITK/TSK (Homo sapiens) (UniProt Q08881). Put plainly: Inhibition of ITK (unknown origin) at 1000 nM incubated for 1 hrs by active site-directed competition binding assay relative to control.
Data set [12] has as its target Mitogen-activated protein kinase 8 (Homo sapiens) (UniProt P45983). Put plainly: Inhibition of JNK1 (unknown origin) at 1000 nM incubated for 1 hrs by active site-directed competition binding assay relative to control.
The nature of data set [13]: Toxicity in CD-1 mouse assessed as body weight loss at 300 mg/kg, po. It is filed as organism-based. The following applies: in vivo.

RAC-beta serine/threonine-protein kinase (Homo sapiens), sequence (P31751 whole entry): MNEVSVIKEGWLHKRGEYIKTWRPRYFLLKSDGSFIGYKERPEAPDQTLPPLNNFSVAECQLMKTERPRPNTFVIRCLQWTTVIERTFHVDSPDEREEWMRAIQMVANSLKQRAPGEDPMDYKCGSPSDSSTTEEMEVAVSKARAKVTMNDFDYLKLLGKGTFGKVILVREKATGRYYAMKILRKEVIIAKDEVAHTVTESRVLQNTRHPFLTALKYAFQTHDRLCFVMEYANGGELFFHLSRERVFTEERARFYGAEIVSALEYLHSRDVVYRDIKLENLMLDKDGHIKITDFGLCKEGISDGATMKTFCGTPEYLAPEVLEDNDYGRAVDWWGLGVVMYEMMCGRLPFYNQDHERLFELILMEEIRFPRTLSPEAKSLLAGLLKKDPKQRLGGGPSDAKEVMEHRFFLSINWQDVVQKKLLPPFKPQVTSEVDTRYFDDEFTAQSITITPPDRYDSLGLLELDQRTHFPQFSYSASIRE
RAC-gamma serine/threonine-protein kinase (Homo sapiens), sequence (Q9Y243 whole entry, the tested form may be a part): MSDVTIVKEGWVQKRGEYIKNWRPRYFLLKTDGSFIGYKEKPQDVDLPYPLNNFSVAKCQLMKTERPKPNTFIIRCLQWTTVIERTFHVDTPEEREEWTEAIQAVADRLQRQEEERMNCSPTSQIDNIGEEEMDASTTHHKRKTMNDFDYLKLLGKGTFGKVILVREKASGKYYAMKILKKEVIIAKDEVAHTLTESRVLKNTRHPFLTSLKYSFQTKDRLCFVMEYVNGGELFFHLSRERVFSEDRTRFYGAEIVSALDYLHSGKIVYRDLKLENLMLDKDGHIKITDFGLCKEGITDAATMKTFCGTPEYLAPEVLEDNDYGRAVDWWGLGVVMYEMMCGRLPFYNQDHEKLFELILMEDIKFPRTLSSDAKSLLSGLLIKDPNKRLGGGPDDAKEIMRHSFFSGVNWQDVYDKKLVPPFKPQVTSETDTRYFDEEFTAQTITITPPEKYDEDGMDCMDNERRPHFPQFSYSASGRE
RAF proto-oncogene serine/threonine-protein kinase (Homo sapiens), sequence (P04049 whole entry): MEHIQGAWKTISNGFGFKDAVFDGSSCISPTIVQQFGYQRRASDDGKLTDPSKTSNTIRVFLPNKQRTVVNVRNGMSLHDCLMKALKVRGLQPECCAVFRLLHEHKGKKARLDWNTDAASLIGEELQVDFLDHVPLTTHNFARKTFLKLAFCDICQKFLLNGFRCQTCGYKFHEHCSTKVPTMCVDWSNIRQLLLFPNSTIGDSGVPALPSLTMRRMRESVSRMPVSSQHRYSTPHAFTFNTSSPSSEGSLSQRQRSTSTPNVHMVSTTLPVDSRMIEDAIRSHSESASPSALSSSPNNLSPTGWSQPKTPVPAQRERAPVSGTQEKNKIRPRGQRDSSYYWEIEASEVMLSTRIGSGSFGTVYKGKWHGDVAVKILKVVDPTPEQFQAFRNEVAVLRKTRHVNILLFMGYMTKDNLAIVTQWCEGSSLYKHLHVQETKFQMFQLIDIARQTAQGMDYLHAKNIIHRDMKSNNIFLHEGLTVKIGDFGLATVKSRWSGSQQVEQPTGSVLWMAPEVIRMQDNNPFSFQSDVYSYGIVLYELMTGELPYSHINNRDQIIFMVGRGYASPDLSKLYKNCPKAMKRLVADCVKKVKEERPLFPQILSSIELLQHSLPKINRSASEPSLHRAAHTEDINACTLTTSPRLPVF
Mitogen-activated protein kinase 8 (Homo sapiens), sequence (P45983 whole entry): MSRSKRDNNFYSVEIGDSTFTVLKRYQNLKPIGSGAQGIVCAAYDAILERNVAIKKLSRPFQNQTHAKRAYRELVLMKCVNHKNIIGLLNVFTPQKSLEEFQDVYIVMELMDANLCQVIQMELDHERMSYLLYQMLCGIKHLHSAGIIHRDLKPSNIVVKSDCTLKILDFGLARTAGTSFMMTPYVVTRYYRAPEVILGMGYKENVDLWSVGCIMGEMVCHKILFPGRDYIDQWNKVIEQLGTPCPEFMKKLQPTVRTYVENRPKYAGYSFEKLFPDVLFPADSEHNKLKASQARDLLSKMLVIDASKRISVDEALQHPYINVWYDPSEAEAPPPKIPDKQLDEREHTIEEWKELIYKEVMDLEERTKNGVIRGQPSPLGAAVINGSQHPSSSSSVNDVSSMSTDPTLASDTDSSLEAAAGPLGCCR
Mitogen-activated protein kinase kinase kinase kinase 3, sequence (Q8IVH8 whole entry, the tested form may be a part): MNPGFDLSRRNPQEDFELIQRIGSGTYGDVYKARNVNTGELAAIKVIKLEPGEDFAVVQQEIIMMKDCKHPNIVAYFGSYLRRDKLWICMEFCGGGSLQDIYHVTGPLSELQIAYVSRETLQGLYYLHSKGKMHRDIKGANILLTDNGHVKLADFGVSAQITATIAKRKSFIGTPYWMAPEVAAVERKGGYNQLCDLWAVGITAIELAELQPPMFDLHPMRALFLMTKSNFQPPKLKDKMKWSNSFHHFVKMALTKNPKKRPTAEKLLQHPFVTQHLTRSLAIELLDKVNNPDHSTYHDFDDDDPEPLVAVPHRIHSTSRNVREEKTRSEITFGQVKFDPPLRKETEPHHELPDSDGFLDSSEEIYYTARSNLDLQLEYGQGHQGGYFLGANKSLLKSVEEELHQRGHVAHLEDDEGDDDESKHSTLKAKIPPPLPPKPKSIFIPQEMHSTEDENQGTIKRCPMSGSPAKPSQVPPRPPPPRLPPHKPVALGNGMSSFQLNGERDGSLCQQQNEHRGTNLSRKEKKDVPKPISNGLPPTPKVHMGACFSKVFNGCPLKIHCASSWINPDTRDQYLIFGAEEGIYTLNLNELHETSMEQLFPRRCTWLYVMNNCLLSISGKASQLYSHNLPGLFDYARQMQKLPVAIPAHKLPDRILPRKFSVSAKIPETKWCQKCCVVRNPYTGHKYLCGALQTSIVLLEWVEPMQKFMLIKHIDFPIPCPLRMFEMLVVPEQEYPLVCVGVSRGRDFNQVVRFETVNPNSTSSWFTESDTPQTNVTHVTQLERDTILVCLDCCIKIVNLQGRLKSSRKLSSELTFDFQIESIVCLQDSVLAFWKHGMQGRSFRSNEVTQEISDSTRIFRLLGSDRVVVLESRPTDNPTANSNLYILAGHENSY
Tyrosine-protein kinase ITK/TSK (Homo sapiens), sequence (Q08881 whole entry): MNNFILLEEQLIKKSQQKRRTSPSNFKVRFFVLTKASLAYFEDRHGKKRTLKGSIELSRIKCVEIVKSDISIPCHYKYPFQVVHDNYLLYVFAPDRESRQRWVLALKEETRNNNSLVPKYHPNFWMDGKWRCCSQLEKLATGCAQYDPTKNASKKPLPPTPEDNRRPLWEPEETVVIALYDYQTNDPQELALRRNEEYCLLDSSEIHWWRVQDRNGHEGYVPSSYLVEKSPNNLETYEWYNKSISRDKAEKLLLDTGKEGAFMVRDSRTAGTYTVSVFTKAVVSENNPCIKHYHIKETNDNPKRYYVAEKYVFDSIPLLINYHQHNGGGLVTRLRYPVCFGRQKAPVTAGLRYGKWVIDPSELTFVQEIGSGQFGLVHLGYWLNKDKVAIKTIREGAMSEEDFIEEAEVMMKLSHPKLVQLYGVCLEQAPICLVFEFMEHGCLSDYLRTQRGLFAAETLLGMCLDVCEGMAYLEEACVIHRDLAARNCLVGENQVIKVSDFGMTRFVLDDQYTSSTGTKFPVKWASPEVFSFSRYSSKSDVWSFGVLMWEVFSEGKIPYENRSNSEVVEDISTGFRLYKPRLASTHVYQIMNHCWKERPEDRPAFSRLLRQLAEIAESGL
Mitogen-activated protein kinase 3 (Homo sapiens), sequence (P27361 whole entry): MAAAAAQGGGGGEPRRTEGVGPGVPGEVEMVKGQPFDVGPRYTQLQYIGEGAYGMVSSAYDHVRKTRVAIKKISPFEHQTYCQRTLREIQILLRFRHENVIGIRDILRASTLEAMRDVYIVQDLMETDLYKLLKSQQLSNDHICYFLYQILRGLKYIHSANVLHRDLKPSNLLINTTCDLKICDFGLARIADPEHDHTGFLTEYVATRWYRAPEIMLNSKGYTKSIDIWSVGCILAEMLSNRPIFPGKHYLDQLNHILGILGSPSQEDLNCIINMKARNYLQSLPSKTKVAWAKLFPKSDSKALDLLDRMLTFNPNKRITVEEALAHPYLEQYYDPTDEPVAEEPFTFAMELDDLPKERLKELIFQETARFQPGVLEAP

Take `O=c1[nH]ccc2c(-c3cnc4cc(F)ccn34)ccc(Nc3ccc(C4CCOCC4)c(CN4CC[C@H](F)C4)n3)c12`: the inhibition in data set [1] was determined as 85%; in data set [2], 56%; in [11] it was 94%; in data set [12], 96%. In addition, in data set [3], the EC50 amounted to 41 nM. For the same molecule, the concentration for half-maximal inhibition (IC50) in [4] stood at 85 nM; in [9], 10.4 nM. Moreover, the AUC(0-t) in data set [5] came out at 4140 ng·h/mL; in data set [7], 2010 ng·h/mL. Further, the percent of control in data set [6] worked out at 0.6%; in data set [8], 100%; in data set [10] it was 100%. Besides, the Activity entry in data set [13] is given as “Non-toxic”.

One may read the inhibition as the change of the read-out against control, counted positive when it falls. The low end stands for little suppression, the high end for strong suppression. As usually defined, the EC50 is the concentration that produces a half-maximal response. For orientation: IC50 means the point on the concentration scale where inhibition reaches its midpoint. What is called AUC(0-t) is the area under the concentration-time curve up to a stated or last time point.
